Experimental data taken from PMC4851326, “Pharmacologic Comparison of Clinical Neutral Endopeptidase Inhibitors in a Rat Model of Acute Secretory Diarrhea” (The Journal of Pharmacology and Experimental Therapeutics, 2016).

How the values were obtained:
[1] = test system: intestinal motility; test: Charcoal meal model of intestinal motility; format: in vivo, rat; conditions: 30 minutes before charcoal meal, distance traveled in 20 minutes
Description: Rats were fasted for 18 hours before the experiment, with free access to water. Animals were weighed, and vehicle or compounds were administered by oral gavage. […] After 30 minutes, each animal received standard charcoal meal (10% suspension of activated charcoal in 5% gum arabic) by oral gavage (5 ml/kg). Animals were given access to food within 1 minute and sacrificed 20 minutes after the charcoal meal. The intestines were carefully removed. Motility was calculated as the measured distance traveled by the charcoal as a percentage of total length from pyloric sphincter to ileocecal junction.

[2] = molecular target: T1, NEP (Homo sapiens, UniProt P08473); test: Purified peptidase assay, NEP; format: biochemical
T1 construct: purchased R&D Systems (Minneapolis, MN)
Description: Purified recombinant human enzymes were purchased from R&D Systems (Minneapolis, MN). […] Each substrate was diluted to 100 μM in the assay buffer recommended for each enzyme by the supplier. […] To these, 5 μl of diluted enzyme was added, followed by 10 μl of the quenched peptide substrate. The plates were incubated at 37°C until at least 10% substrate turnover or 5 μM product had formed. Fluorescence was measured using a Tecan Safire II (Excitation 320 nm/Emission 420 nm). Each plate included a standard curve of reaction product and positive (no enzyme) and negative (dimethyl sulfoxide vehicle) controls. Dose-response data were plotted and inhibition values (IC50) determined by linear regression analysis using GraphPad Prism (GraphPad Software, La Jolla, CA).

T1 sequence (P08473 whole entry): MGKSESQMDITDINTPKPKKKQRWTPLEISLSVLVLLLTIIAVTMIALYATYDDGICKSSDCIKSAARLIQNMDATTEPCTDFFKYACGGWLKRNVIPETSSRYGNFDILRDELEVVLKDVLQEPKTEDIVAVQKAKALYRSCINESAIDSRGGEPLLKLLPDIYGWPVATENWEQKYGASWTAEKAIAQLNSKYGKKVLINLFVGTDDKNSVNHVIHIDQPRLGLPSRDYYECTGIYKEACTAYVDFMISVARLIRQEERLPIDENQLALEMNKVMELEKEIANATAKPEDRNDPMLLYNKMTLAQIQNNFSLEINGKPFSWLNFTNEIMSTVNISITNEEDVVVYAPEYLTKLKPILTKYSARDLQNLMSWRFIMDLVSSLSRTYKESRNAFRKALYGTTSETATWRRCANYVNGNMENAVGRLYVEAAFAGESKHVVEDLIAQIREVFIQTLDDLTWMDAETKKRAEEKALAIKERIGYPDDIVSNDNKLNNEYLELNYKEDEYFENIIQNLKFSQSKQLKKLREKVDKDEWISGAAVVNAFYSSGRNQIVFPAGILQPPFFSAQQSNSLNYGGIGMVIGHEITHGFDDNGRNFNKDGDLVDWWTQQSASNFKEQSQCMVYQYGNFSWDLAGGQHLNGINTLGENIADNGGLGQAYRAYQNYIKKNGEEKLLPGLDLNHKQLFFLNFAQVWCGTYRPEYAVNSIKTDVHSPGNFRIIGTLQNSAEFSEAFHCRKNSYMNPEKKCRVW

Structure (SMILES): CN(C)C(=O)C(CCN1CCC(O)(c2ccc(Cl)cc2)CC1)(c1ccccc1)c1ccccc1 [loperamide]
- Effect on intestinal transit (charcoal meal test) ([1]; oral, dose not given (Fig. 5)): greatly slowed transit

Structure (SMILES): COCCOC[C@H](CC1(C(=O)N[C@H]2CC[C@@H](C(=O)O)CC2)CCCC1)C(=O)O [Candoxatrilat, candoxatrilat]
- IC50 ([2]; recombinant purified human enzyme, for prodrugs the active form was tested): < 100 nM
- NEP selectivity over the other peptidases ([2]; versus panel of ACE, ECE-1, ECE-2, IDE, APN, PSA): > 60 fold

Structure (SMILES): CCOC(=O)[C@H](C)C[C@@H](Cc1ccc(-c2ccccc2)cc1)NC(=O)CCC(=O)O [Sacubitril, 4-(((2S,4R)-1-([1,1′-biphenyl]-4-yl)-5-ethoxy-4-methyl-5-oxopentan-2-yl)amino)-4-oxobutanoic acid]
- Effect on intestinal transit (charcoal meal test) ([1]; 30 mg/kg oral): no effect
- Effect on intestinal transit (charcoal meal test) ([1]; 100 mg/kg oral): significant but very modest effect
